Assay results from US20110301233A1, “Novel Polyisoprenylated Benzophenone Derivatives from Garcinia paucinervis” (priority 2010, published 2011).

What was measured:
Type in all cases: cell-based
[1] = system: HeLa-C3 cells; assay: Apoptosis-inducing effect: caspase-3 activation, YFP/CFP emission ratio (FRET biosensor) in HeLa-C3 cells; settings: for Apoptotic effect at 25 μM / Apoptotic effect at 50 μM / Apoptotic effect at 100 μM: 72 h
Protocol: The biological activity of Compounds 1-4 was evaluated for apoptosis-inducing effects using genetically engineered HeLa-C3 cells that can produce a fluorescent biosensor capable of detecting caspase-3 activation. These cells emit a green light under normal growth conditions and change to a blue light when caspase-3 is activated during apoptosis to cleave the sensor protein inside the cells. This color change allows one to use a fluorescent plate reader to directly detect the activation level of caspase-3 in HeLa-C3 cells during the course of the compound treatment in a noninvasive way. Based on our previous test results, the emission ratio of YFP (yellow fluorescent protein)/CFP (cyanfluorescent proteins) is usually between 6 and 8 in normal cells, and this ratio will decrease to a value below 3 if a compound can activate caspase-3 and kill cancer cells. Therefore, any compound that can reduce the YFP/CFP emission ratio to a value below 3 is considered positive in activating apoptosis.
Bioassay: The bioassay method was described in our previous paper with some modifications. All the testing samples were dissolved in DMSO to make stock solutions. The concentration of each stock was at least 1000 times higher than the working concentration. HeLa-C3 cells, which can detect apoptotic cell death involving caspase activation, were cultured in minimum essential medium (MEM) containing 10% fetal bovine serum, 100 U/ml penicillin, […] streptomycin, in a 5% CO2 humidity incubator at 37° C. The sample well for apoptotic activity testing was prepared by seeding a well on a 96-well plate with 7500 HeLa-C3 cells suspended in 100 μl culture medium. After 12-16 h incubation, the old medium was removed and 100 μl freshly prepared culture medium containing the testing sample at a certain working concentration was added to both the sample well and the corresponding background well. Culture medium containing 0.1% DMSO was the negative control while 500 nM paclitaxel was the positive control. After that, the plate was read repeatedly by a Perkin-Elmer Victor reader with excitation wavelength at 440±10 nm and emission wavelength at 486±8 nm for CFP (cyan fluorescent protein) and 535±8 nm for YFP (yellow fluorescent protein) at indicated time points. The data acquisition duration was up to 72 h. The YFP/CFP emission ratio was then calculated. The background fluorescence was measured from the wells containing only medium. After subtracting the background fluorescence from the recorded signal, net YFP and CFP readings were obtained. In this paper, Y/C emission ratio is used to represent the effect of FRET, which is equal to the net YFP reading divided by the net CFP reading from the same well. If YFP/CFP emission ratio was reduced below 3, the testing sample was considered as a good apoptotic inducer at that concentration. All samples were tested in triplicate. The whole experiment was repeated for three times.

[2] = system: HeLa-C3 cells; assay: Cell morphology changes during compound treatment (FIG. 5)
Protocol: Various cell morphologies were recorded at the indicated time points. The control cells have normal attached cell morphology through the course of the experiment. Cells have shrinkage and detached morphology when they were treated with either the anticancer drug paclitaxel or other compounds, confirming their ability to kill cancer cells.
In addition to detecting the caspase activation using our HeLa-C3 cells, the cell morphology changes was also examined after the treatment of the tested compounds.

[3] = system: HeLa cells; assay: MTT assay, HeLa cell growth inhibition; settings: for IC50: HeLa cells treated for 72 h, MTT; for HeLa cell growth inhibiting effect: HeLa cells, 72 h, IC50 below or near 10
Protocol: IC50 of four new compounds was measured using MTT assay. MTT powder was dissolved in PBS at a concentration of 5 mg/mL. For MTT assay, 10 μL of MTT solution was added into each well of a 96-well plate. After 2 h incubation at 37° C., 100 μL 10% SDS solution with 0.01 M HCl was added to dissolve the purple crystals. After 24 h incubation, the optical density (OD) readings at 595 nm were measured using a plate reader. Firstly, 2,500 HeLa cells suspended in 100 μL MEM medium were seeded respectively in a 96-well plate. After 24 h incubation, fresh medium that contained various concentrations of each compound were added into the 96-well plate and changed the old medium. The concentrations applied were ranged from 100 μM to 1.5625 μM, which was achieved by doing two-fold dilutions for 6 times. The OD values of the control group at 0 h and 72 h together with the compound treated groups at 72 h from the MTT assay were measured using a plate reader. IC50 is the concentration of a compound inhibiting 50% of the cell growth.

Row | IC50 [3] | Structure (SMILES) | Apoptotic effect at 25 μM [1] | Apoptotic effect at 50 μM [1] | Apoptotic effect at 100 μM [1] | caspase-3 activation ([1]; within 72 h at 100 μM and 50 μM) | cell morphology ([2]; 50 μM, 24, 48 and 72 h) | cell morphology ([2]; 25 μM, 24, 48 and 72 h) | HeLa cell growth inhibiting effect [3] | cell morphology ([2]; 500 nM, positive control)
1 | 8.2 ± 0.8 µM | CC(C)=CC[C@H]1C[C@@]23CC4(CCC(C)(C)C[C@@]4(C)O)OC2=C(C(=O)c2ccc(O)c(O)c2)C(=O)[C@](CC=C(C)C)(C3=O)C1(C)C (relative stereo) [Compound 2, Paucinone B] | + (“+” means the YFP/CFP emission ratio of compound treated HeLa-C3 cells was below 3 at 72 h.) | + (“+” means the YFP/CFP emission ratio of compound treated HeLa-C3 cells was below 3 at 72 h.) | + (“+” means the YFP/CFP emission ratio of compound treated HeLa-C3 cells was below 3 at 72 h.) | – | – | cell shrinkage | strong HeLa cell growth inhibiting effects | –
2 | 5.8 ± 0.6 µM | C=C1CCCC(C)(C)[C@H]1C[C@H]1C[C@@]23CC(C(C)(C)O)OC2=C(C(=O)c2ccc(O)c(O)c2)C(=O)[C@](CC=C(C)C)(C3=O)C1(C)C (relative stereo) [Compound 4, Paucinone D] | + (“+” means the YFP/CFP emission ratio of compound treated HeLa-C3 cells was below 3 at 72 h.) | + (“+” means the YFP/CFP emission ratio of compound treated HeLa-C3 cells was below 3 at 72 h.) | + (“+” means the YFP/CFP emission ratio of compound treated HeLa-C3 cells was below 3 at 72 h.) | – | – | cell shrinkage | strong HeLa cell growth inhibiting effects | –

Further lines, the molecule ahead of its results:

Row | Structure (SMILES) | IC50 [3] | Apoptotic effect at 25 μM [1] | Apoptotic effect at 50 μM [1] | Apoptotic effect at 100 μM [1] | caspase-3 activation ([1]; within 72 h at 100 μM and 50 μM) | cell morphology ([2]; 50 μM, 24, 48 and 72 h) | cell morphology ([2]; 25 μM, 24, 48 and 72 h) | HeLa cell growth inhibiting effect [3] | cell morphology ([2]; 500 nM, positive control)
3 | CC(C)=CC[C@H]1C[C@@]23CC4(CCC(C)(C)C[C@]4(C)O)OC2=C(OC(=O)c2ccc(O)c(O)c2)C(=O)[C@](CC=C(C)C)(C3=O)C1(C)C (relative stereo) [Compound 3, Paucinone C] | 24.3 ± 0.6 µM | − (“−” means the YFP/CFP emission ratio of compound treated HeLa-C3 cells was above 3 at 72 h.) | + (“+” means the YFP/CFP emission ratio of compound treated HeLa-C3 cells was below 3 at 72 h.) | + (“+” means the YFP/CFP emission ratio of compound treated HeLa-C3 cells was below 3 at 72 h.) | could activate caspase-3 | cell shrinkage | – | – | –
4 | CC(C)=CC[C@H]1C[C@@]23CC4(CCC(C)(C)C[C@]4(C)O)OC2=C(C(=O)c2ccc(O)c(O)c2)C(=O)[C@](CC=C(C)C)(C3=O)C1(C)C (relative stereo) [Compound 1, Paucinone A] | 10 ± 0.5 µM | + (“+” means the YFP/CFP emission ratio of compound treated HeLa-C3 cells was below 3 at 72 h.) | + (“+” means the YFP/CFP emission ratio of compound treated HeLa-C3 cells was below 3 at 72 h.) | + (“+” means the YFP/CFP emission ratio of compound treated HeLa-C3 cells was below 3 at 72 h.) | – | – | cell shrinkage | strong HeLa cell growth inhibiting effects | –
5 | CC(=O)O[C@H]1C(=O)[C@@]2(C)[C@H]([C@H](OC(=O)c3ccccc3)[C@]3(O)C[C@H](OC(=O)[C@H](O)[C@@H](NC(=O)c4ccccc4)c4ccccc4)C(C)=C1C3(C)C)[C@]1(OC(C)=O)CO[C@@H]1C[C@@H]2O [paclitaxel, reference compound] | – | – | – | – | – | – | – | – | typical cell shrinkage morphology
